Results reported in US12043602B2, “Fendiline derivatives” (The Board of Regents of the University of Texas System, priority 2019, dated 2024).
Read-outs that look alike come from different tables or passages of the source.

Experiments:
[1] = target: mGFP-K-RASG12V (Homo sapiens (Human), UniProt P01116, G12V); assay: K-Ras mislocalization assay (confocal microscopy, Manders coefficient); format: cell-based; set-up: key to Emax: Manders coefficient: fraction of mCherry-CAAX co-localizing with GFP-K-Ras; details: for Emax: maximal effect, Manders coefficient; for Emax / IC50 / EC50: MDCK cells; for Emax / EC50: 48 h; for IC50: 48 h treatment, read-out: IC50 (μM), KRASG12V mislocalization; for EC50: batch 4 compounds, title calls it IC50, read-out: EC50
Procedure: Madine Darby Canine Kidney epithelial cells (MDCK) stably co-expressing mGFP-tagged full length oncogenic mutant K-Ras (GFP—K-RASG12V) or mGFP-LactC2 (peptide probe for phosphatidylserine) and mCherry-tagged to the amino acids 179-189 of H-RasC181S, C184S (mCherry-CAAX, localizes primarily to endomembranes) were grown in DMEM-high glucose/sodium pyruvate/10% FBS. The medium was supplemented with 1× Penicillin/Streptomycin for fluorescence microscopy assays, to avoid any microbial contamination from the test compounds added. KLE and Hec50 cells were maintained in DMEM-F-12 medium supplemented with 10% FBS. Hec-1A and Hec-1B cells were grown in McCoy's 5a medium supplemented with 10% FBS. ESS-1 cells were grown in RPMI 1640 medium supplemented with 20% FBS. MPanc96 cells were grown in DMEM supplemented with 10% FBS, MiaPaCa-2 cells in DMEM supplemented with 10% FBS and 2.5% horse serum and all other cell lines were grown in RPMI 1640 supplemented with 10% FBS. All cancer cell media were supplemented with ×Penicillin/Streptomycin. All cell lines were grown at 37° C. with 5% CO2.
MDCK co-expressing GFP—K-RASG12V or LactC2 and mCherry-CAAX were grown on coverslips, treated with 0.1% vehicle (DMSO) or various concentrations of drugs for 48 h, and fixed with 4% paraformaldehyde. The coverslips were mounted in mowiol and imaged by confocal microscopy (Nikon A1) using a 60× objective. Using ImageJ software v1.42q, images were converted to 8-bit, and a threshold to a control pixel of each image was set. As a measure of K-Ras/LactC2 mislocalization, the fraction of mCherry-CAAX co-localizing with mGFP-K-RASG12V was calculated using a Manders coefficient plugin downloaded from Wright Cell Image Facility. The fraction of mCherry-CAAX co-localizing with mGFP-RASG12V (Mander's coefficient) is proportional to K-Ras mislocalization.

[2] = test system: MDCK cells co-expressing GFP-K-RASG12V and mCherry-CAAX; assay: Cytotoxicity in mislocalization screen (death of all cells in well); details: drug caused death of all cells in well at 30 μM

| SMILES | Emax [1] | Cytotoxic at 30 μM [2] | IC50 [1] | also measured |
| --- | --- | --- | --- | --- |
| NC(=O)[C@H](NCC=C(c1ccccc1)c1ccccc1)c1ccccc1 [NY0569, (R)-2-((3,3-diphenylallyl)amino)-2-phenylacetamide] | 0.321 | No |  |  |
| O=C(c1ccc(F)cc1)N(CC=C(c1ccccc1)c1ccccc1)CCN1CCCC1 [PW276, N-(3,3-diphenylallyl)-4-fluoro-N-(2-(pyrrolidin-1-yl)ethyl)benzamide] | 0.572 | Yes | 4.8 µM |  |
| COc1ccc([C@@H](C)N(CC=C(c2ccccc2)c2ccccc2)CCN2CCN(C(C)=O)CC2)cc1 [NY350, (R)-1-(4-(2-((3,3-diphenylallyl)(1-(4-methoxyphenyl)ethyl)amino)ethyl)piperazin-1-yl)ethanone] | 0.877 | No |  |  |
| C[C@H](c1ccc(F)cc1)N(CC=C(c1ccccc1)c1ccccc1)CCn1cc(CN)nn1 [PW305, (R)-N-(2-(4-(aminomethyl)-1H-1,2,3-triazol-1-yl)ethyl)-N-(1-(4-fluorophenyl)ethyl)-3,3-diphenylprop-2-en-1-amine] | 0.609 | Yes | 0.507 µM |  |
| COc1cc(C(=CCN(CCN2CCCC2)[C@H](C)c2ccc(F)cc2)c2cc(OC)c(OC)c(OC)c2)cc(OC)c1OC [PW358, (R)-N-(1-(4-Fluorophenyl)ethyl)-N-(2-(pyrrolidin-1-yl)ethyl)-3,3-bis(3,4,5-trimethoxyphenyl)prop-2-en-1-amine] | 0.938 | Yes | 1.02 µM |  |
| CCN(CC=C(c1ccccc1)c1ccccc1)[C@@H](C)c1ccc(OC)cc1 [NY0431] | 0.756 | No | 2.91 µM |  |
| Cc1ccc(C(=CCN(CCN2CCCC2)[C@H](C)c2ccc(F)cc2)c2ccc(C)cc2)cc1 [PW327, (R)-N-(1-(4-Fluorophenyl)ethyl)-N-(2-(pyrrolidin-1-yl)ethyl)-3,3-di-p-tolylprop-2-en-1-amine] | 0.808 | Yes | 7.8 µM |  |
| C#CCN1CCN(CCN(CC=C(c2ccccc2)c2ccccc2)[C@H](C)c2ccc(OC)cc2)CC1 [NY356, (R)-N-(1-(4-methoxyphenyl)ethyl)-3,3-diphenyl-N-(2-(4-(prop-2-ynyl)piperazin-1-yl)ethyl)prop-2-en-1-amine] | 0.886 | No | 4.19 µM |  |
| COC(=O)[C@H](NCC=C(c1ccccc1)c1ccccc1)c1ccccc1 [NY055102, Methyl (R)-2-((3,3-diphenylallyl)amino)-2-phenylacetate] | 0.424 | No |  |  |
| C[C@H](c1ccc(F)cc1)N(C/C=C(/c1ccccc1)c1ccc(OC(F)(F)F)cc1)CCN1CCCC1 [PW361, (R,Z)-N-(1-(4-fluorophenyl)ethyl)-3-phenyl-N-(2-(pyrrolidin-1-yl)ethyl)-3-(4-(trifluoromethoxy)phenyl)prop-2-en-1-amine] | 0.606 | Yes at 3 uM | 0.725 µM |  |
| C=CCN(CCN1CCN(C)CC1)[C@H](C)c1ccc(OC)cc1 [NY349, (R)-N-(1-(4-methoxyphenyl)ethyl)-N-(2-(4-methylpiperazin-1-yl)ethyl)prop-2-en-1-amine] | 0.76 ± 0.02 | No | 59.3 µM | KRAS PM localization inhibition activity (in words) [1]: complete loss of in vitro activity |
| C#CCN(CC=C(c1ccccc1)c1ccccc1)[C@H](C)c1ccc(OC)cc1 [NY0234, (R)-N-(1-(4-methoxyphenyl)ethyl)-3,3-diphenyl-N-(prop-2-yn-1-yl)prop-2-en-1-amine] | 0.703 | No | 21.9 µM |  |
| C[C@@H](NCC(=O)N1c2ccccc2Sc2ccccc21)c1ccc(F)cc1 [NY0573, (R)-2-((1-(4-fluorophenyl)ethyl)amino)-1-(10H-phenothiazin-10-yl)ethan-1-one] | 0.733 | No |  | EC50 [1]: 1750 nM |
| OC[C@H](c1ccccc1)N(CC=C(c1ccccc1)c1ccccc1)CC=C(c1ccccc1)c1ccccc1 [AVA72, reference compound] | 0.764 | No | 0.17 µM |  |
| C(CN(CCN1CCCC1)Cc1cc2cccnc2[nH]1)=C(c1ccccc1)c1ccccc1 [PW293, N-((1H-pyrrolo[2,3-b]pyridin-2-yl)methyl)-3,3-diphenyl-N-(2-(pyrrolidin-1-yl)ethyl)prop-2-en-1-amine] | 0.83 | Yes | 3.37 µM |  |
| COc1ccc([C@@H](C)N(CC=C(c2ccccc2)c2ccccc2)CCN2CCN(C(=O)NC(C)(C)C)CC2)cc1 [NY0587, (R)-N-(tert-butyl)-4-(2-((3,3-diphenylallyl)(1-(4-methoxyphenyl)ethyl)amino)ethyl) piperazine-1-carboxamide] | 0.827 | No |  | EC50 [1]: 1830 nM |
| COc1ccc([C@H](C)N(CC=C(c2ccccc2)c2ccccc2)CCN(C)C)cc1 [NY0434] | 0.835 | No | 4.69 µM |  |
| COc1ccc([C@@H](C)N(C)CC=C(c2ccccc2)c2ccccc2)cc1 [NY0218, (R)-N-(1-(4-methoxyphenyl)ethyl)-N-methyl-3,3-diphenylprop-2-en-1-amine] | 0.75 ± 0.01 | No | 3.3 µM | fold loss of potency to mislocalize KRAS ([1]; in comparison with 7): 7 fold |
| C=CCN(CC=C(c1ccccc1)c1ccccc1)[C@H](C)c1ccc(OC)cc1 [NY0217, (R)-N-allyl-N-(1-(4-methoxyphenyl)ethyl)-3,3-diphenylprop-2-en-1-amine] | 0.47 | No | 13 µM |  |
| COc1ccc([C@@H](C)N(CC=C(c2ccccc2)c2ccccc2)CCN2CCNCC2)cc1 [NY347, (R)-N-(1-(4-methoxyphenyl)ethyl)-3,3-diphenyl-N-(2-(piperazin-1-yl)ethyl)prop-2-en-1-amine] | 0.86 ± 0.02 | Yes | 1.3 µM | Emax ([1]; listed as 12e): 0.90; Cytotoxic at 30 μM ([2]; listed as 12e): cytotoxicity |
| COc1ccc([C@@H](C)N(CC=C(c2ccccc2)c2ccccc2)CCN2CCN(C(=O)Nc3ccccc3)CC2)cc1 [NY352, (R)-4-(2-((3,3-diphenylallyl)(1-(4-methoxyphenyl)ethyl)amino)ethyl)-N-phenylpiperazine-1-carboxamide] | 0.920 | Yes | 1.68 µM |  |
| COc1ccc([C@@H](C)N(CC=C(c2ccccc2)c2ccccc2)C(C)=O)cc1 [NY0222, (R)-N-(3,3-diphenylallyl)-N-(1-(4-methoxyphenyl)ethyl)acetamide] | 0.587 | Yes | 0.25 µM |  |
| COc1ccc([C@@H](C)N(CC=C(c2ccccc2)c2ccccc2)C(=O)CN2CCN(C)CC2)cc1 [PW125, (R)-N-(3,3-diphenylallyl)-N-(1-(4-methoxyphenyl)ethyl)-2-(4-methylpiperazin-1-yl)acetamide] | 0.514 | Yes | 7.09 µM | IC50 ([1]; listed as 20): 7.1 µM; Emax ([1]; listed as 20): 0.51 ± 0.02 |
| COc1ccc(NC(=O)N(CC=C(c2ccccc2)c2ccccc2)[C@H](C)c2ccc(OC)cc2)cc1 [NY0224, (R)-1-(3,3-diphenylallyl)-3-(4-methoxyphenyl)-1-(1-(4-methoxyphenyl)ethyl)urea] | 0.622 | No | 0.64 µM |  |
| O=C(c1cc(-c2ccc(Cl)cc2)on1)N(CC=C(c1ccccc1)c1ccccc1)CCN1CCCC1 [PW283, 5-(4-chlorophenyl)-N-(3,3-diphenylallyl)-N-(2-(pyrrolidin-1-yl)ethyl)isoxazole-3-carboxamide] | 0.324 | Yes |  |  |
| COc1cccc(C(=CCN(CCN2CCCC2)[C@H](C)c2ccc(F)cc2)c2cccc(OC)c2)c1 [PW357, (R)-N-(1-(4-Fluorophenyl)ethyl)-3,3-bis(3-methoxyphenyl)-N-(2-(pyrrolidin-1-yl)ethyl)prop-2-en-1-amine] | 0.497 | Yes at 10 uM |  |  |
